Reference: patent US20140186329A1, “POLYPHENOL ANALOGS TO TREAT ISCHEMIA” (priority 2011, published 2014)

Columns and labels:
[1] = tested on: HT22 cells; assay: In vitro ischemia assay (HT22 cell IAA assay, MTT); format: cell-based, mouse; details: for EC50: Mus musculus, HT-22, HT22 cells, read-out: EC50 in vitro ischemia; for EC50 / EC50 in vitro ischemia (μM): 20 μM IAA for 2 hr, viability after 24 hr by MTT; for EC50 in vitro ischemia (μM): HT22 cells
Protocol: Cell viability was determined by a modified version of 3-(4,5-dimethylthiazol-2-yl)-2,5-diphenyl tetrazolium bromide (MTT) assay based on the standard procedure (Maher, et al., Brain Research. (2007), supra). Cells were seeded onto 96-well microtiter plates at a density of 5×10^3 cells per well. For the in vitro ischemia assay, the next day, the medium was replaced with DMEM supplemented with 7.5% DFCS and the cells were treated with 20 μM iodoacetic acid (IAA) alone or in the presence of the different derivatives. After 2 hr the medium in each well was aspirated and replaced with fresh medium without IAA but containing the derivatives. 20 hr later, the medium in each well was aspirated and replaced with fresh medium containing 2.5 μg/ml MTT. After 4 hr of incubation at 37° C., the cells were solubilized with 100 μl of a solution containing 50% dimethylformamide and 20% SDS (pH 4.7). The absorbance at 570 nm was measured on the following day with a microplate reader (Molecular Devices). Results were confirmed by visual inspection of the wells. Controls included compound alone to test for toxicity and compound with no cells to test for interference with the assay chemistry.
For a primary screen, an in vitro ischemia model in combination with the HT22 nerve cell line (Maher, et al., Brain Research. (2007) 1173, 117-125) was chosen. […] To induce ischemia in the HT22 cells we used iodoacetic acid (IAA), a well-known, irreversible inhibitor of the glycolytic enzyme glyceraldehyde 3-phosphate dehydrogenase (G3PDH) (Winkler, et al., Exp. Eye Res. (2003) 76, 715-723). IAA has been used in a number of other studies to induce ischemia in nerve cells (Reshef, et al., Neurosci. Lett. (1997) 238, 37-40; Sperling, et al., Neursci. Lett. (2003) 351, 137-140; Rego, et al., Neurochem. Res. (1999) 24, 351-358; Sigalov, et al., J. Mol. Neurosci. (2000) 15, 147-154; and Reiner, et al., Neurosci. Lett. (1990) 119, 175-178), including several recent screens for neuroprotective molecules (Biraboneye, et al., J. Med. Chem. (2009) 52 (14), 4358-4369; Biraboneye, et al., Chem. Med. Chem. (2010) 5 (1), 79-85). The changes following IAA treatment of neural cells are very similar to those seen in animal models of ischemic stroke (Lipton, et al., Physiol. Rev. (1999) 79, 1431-1568) and include alterations in membrane potential (Reiner, et al., Neurosci. Lett. (1990) 119, 175-178), breakdown of phospholipids (Taylor, et al., J. Pharmacol. Exp. Ther. (1996) 276, 1224-1231), loss of ATP (Winkler, et al., Exp. Eye Res. (2003) 76, 715-723; Sperling, et al., Neursci. Lett. (2003) 351, 137-140) and an increase in reactive oxygen species (ROS) (Taylor, et al., J. Pharmacol. Exp. Ther. (1996), supra; and Sperling, et al., Neursci. Lett. (2003) 351, 137-140).
(§1) Cell viability was determined after 24 hr by the MTT assay. The ability to maintain GSH (GSH) was determined by treating HT22 cells with different doses of each derivative (1-10 μM) in the presence of 5 mM glutamate. After 24 hr cell extracts were prepared and analyzed for total GSH. Fisetin (10 μM) was used as a positive control. The ability to induce PC12 cell differentiation (PC 12 diff' n) was determined by treating PC12 cells in N2 medium with different doses of each derivative (1-10 μM) for 24 hr. Differentiation was assessed by visual inspection with Fisetin (10 μM) as a positive control. Anti-inflammatory activity (microglia) was assessed in N9 microglial cells treated with bacterial lipopolysaccharide alone or in the presence different doses of each derivative (1-10 μM) for 24 hr. Fisetin was used as a positive control. TEAC values, a measure of direct antioxidant activity, were determined using the ABTS decolorization assay.
For rapid screening of chemical libraries, a mouse HT22 hippocampal cell death assay induced by addition of the compound iodoacetic acid (IAA) was used. IAA is a well-known, irreversible inhibitor of the glycolytic enzyme glyceraldehyde 3-phosphate dehydrogenase (G3PDH). […]

[2] = tested on: HT22 cells; assay: Maintenance of total GSH in the presence of glutamate; format: cell-based, mouse; details: derivative 1-10 μM, 5 mM glutamate, 24 hr
Protocol: Total intracellular glutathione was determined by a chemical assay as described (Maher, P. et al., Free Radical Research. (2006) 40 (10), 1105-1111).
(§2) Three secondary screens allowed assessment of three key activities of Fisetin that are highly relevant to stroke, as well as other neurological disorders: maintenance of glutathione (GSH), the major endogenous cellular antioxidant, inhibition of LPS-induced microglial activation, an indicator of anti-inflammatory activity and PC 12 cell differentiation, a measure of neurotrophic activity. All of these activities are relevant to the nerve cell loss seen in stroke (Gelderblom, et al., Stroke. 2009, 40 (5), 1849-1857; Pandya, et al., Cent. Nerv. Syst. Agents. Med. Chem. (2011) April 27; Lewerenz, et al., J. Neurochem. (2010) 113 (2), 502-504). […] To assess GSH maintenance, total intracellular GSH levels after a 24 hr treatment with the compound both in the absence and presence of glutamate, an inducer of GSH loss and oxidative stress (Tan, et al., Curr. Top. Med. Chem. (2001) 1, 497-506; Maher, et al., Free Radical Research. (2006) 40 (10), 1105-1111) was measured. Inhibition of LPS-induced microglial activation was determined by treating N9 mouse microglial cells with LPS alone and in the presence of the compounds and assaying NO release into the medium 24 hr later (Zheng, et al., Int. Immunopharmacol. (2008) 8, (3), 484-494). PC12 cell differentiation was determined by treating PC12 cells with the compounds and looking at neurite outgrowth after 24 hr. In all cases, Fisetin was used as a positive control (Sagara, et al., J. Neurochem. (2004) 90, 1144-1155).
as §1

[3] = tested on: PC12 cells; assay: PC12 cell differentiation (neurite outgrowth); format: cell-based; details: N2 medium, derivative 1-10 μM, 24 hr, visual inspection
Protocol: PC 12 cells in N2 medium were treated with the derivatives (1-10 μM) or Fisetin (10 μM) as a positive control for 24 hr at which time the cells were scored for the presence of neurites. PC12 cells produce neurites much more rapidly when treated in N2 medium than when treated in regular growth medium. For each treatment, 100 cells in each of three separate fields were counted. Cells were scored positive if one or more neurites>1 cell body diameter in length were observed.
as §2, §1

[4] = TEAC, ABTS decolorization assay; details: relative to Trolox
Protocol: TEAC values for the flavonoids were determined as described (Maher, P. et al., Free Radical Research. (2006), supra). Briefly, 250 μl of 2,2′-azinobis(3-ethylbenzothiazoline 6-sulfonate) (ABTS) treated overnight with potassium persulfate and diluted to an OD of ˜0.7 at 734 nm was added to 2.5 μl of a derivative solution in ethanol. The change in absorbance due to the reduction of the ABTS radical cation was measured at 734 nm for 4 min. To calculate the TEAC, the gradient of the plot of the percentage inhibition of absorbance vs. concentration for the derivative in question was divided by the gradient of the plot for Trolox.
as §1

SMILES | EC50 [1] [nM] | GSH (ability to maintain GSH) [2] | PC12 diff'n (ability to induce PC12 cell differentiation) [3] | TEAC [4] | EC50 in vitro ischemia (μM) [1] | fold enhancement of neuroprotective activity relative to CMS-027 ([1]; in vitro ischemia, HT22/IAA) [fold]
COc1cc(-c2cc(=O)c3cc(C)c(C)cc3o2)ccc1OCc1ccccc1 [CMS-058, 2-(4-(benzyloxy)-3-methoxyphenyl)-6,7-dimethyl-4H-chromen-4-one] | 500 | no | no | 0.09 | – | –
CC(C)Oc1cc(-c2ccc(N3CCCC3)cc2)nc2ccccc12 [CMS-113, 4-isopropoxy-2-(4-(pyrrolidin-1-yl)phenyl)quinoline] | 500 | no | no | 0.27 | – | –
Cc1cc2oc(-c3ccc(O)cc3O)c(O)c(=O)c2cc1C [CMS-093, 2-(2,4-dihydroxyphenyl)-3-hydroxy-6,7-dimethyl-4H-chromen-4-one] | > 500 | no | no | 1.56 | – | –
CCOc1ccc(/C=C/C(=O)c2ccc3ccccc3c2O)cc1OCC [CMS-032, (E)-3-(3,4-diethoxyphenyl)-1-(1-hydroxynaphthalen-2-yl)prop-2-en-1-one] | – | no | no | 0.12 | no | –
COc1cc(-c2ccc(O)cc2)nc2ccccc12 [CMS-022, 4-methoxy-2-(4-hydroxyphenyl)quinoline] | – | no | no | 0.81 | no | –
Cc1cc2oc(-c3ccc(O)c(O)c3)cc(=O)c2cc1C [CMS-028, 2-(3,4-dihydroxyphenyl)-6,7-dimethyl-4H-chromen-4-one] | 250 | no | no | 0.27 | – | 2
CCOc1ccc(/C=C/C(=O)c2cc(C)c(C)cc2O)cc1OCC [CMS-013, (E)-3-(3,4-diethoxyphenyl)-1-(2-hydroxy-4,5-dimethylphenyl)prop-2-en-1-one] | – | no | no | 0.09 | no | –
Cc1cc2oc(-c3ccc(N4CCCC4)cc3)cc(=O)c2cc1C [CMS-116, 6,7-dimethyl-2-(4-(pyrrolidin-1-yl)phenyl)-4H-chromen-4-one] | > 500 | no | no | 0.12 | – | –
COc1cc(/C=C/C(=O)c2ccc3ccccc3c2O)ccc1OCc1ccccc1 [CMS-063, (E)-3-(4-(benzyloxy)-3-methoxyphenyl)-1-(1-hydroxynaphthalen-2-yl)prop-2-en-1-one] | 500 | no | no | 0.15 | – | –
CCOc1ccc(-c2cc(=O)c3ccc4ccccc4c3o2)cc1OCC [CMS-038, 2-(3,4-diethoxyphenyl)-4H-benzo[h]chromen-4-one] | – | no | no | 0.2 | no | –
COc1cc(-c2ccc(O)cc2O)nc2ccccc12 [CMS-083, 4-methoxy-2-(2,4-dihydroxyphenyl) quinoline] | > 500 | no | no | 0.05 | – | –
COc1cc(-c2ccc([N+](=O)[O-])c(O)c2)nc2ccccc12 [CMS-111, 4-methoxy-2-(3-hydroxy-4-nitrophenyl)quinoline] | – | no | no | 0.18 | no | –
Cc1cc2oc(-c3ccc(N(C)C)cc3)cc(=O)c2cc1C [CMS-119, 2-(4-(dimethylamino)phenyl)-6,7-dimethyl-4H-chromen-4-one] | > 500 | no | no | 0 | – | –
Cc1cc2oc(-c3ccc(O)cc3O)cc(=O)c2cc1C [CMS-094, 2-(2,4-dihydroxyphenyl)-6,7-dimethyl-4H-chromen-4-one] | > 500 | no | no | 0.15 | – | –
COc1cc(-c2oc3c(ccc4ccccc43)c(=O)c2O)ccc1O [CMS-070, 3-hydroxy-2-(4-hydroxy-3-methoxyphenyl)-4H-benzo[h]chromen-4-one] | > 500 | no | yes | 0.63 | – | –
